Data reported in patent publication US5432165A, “Methods for the treatment of infection caused by Hepatitis B virus (HBV)” (priority 1992, dated 1995).
“Also recorded” adds a separate entry of the source.

Legend:
clinical = experiment: clinical
Method: Tolerance to the oral formulation of FIAU was evaluated in relatively healthy HIV-infected patients with Karnofsky performance scores ≥80 and ≥200 CD4 cells/mm^3. Sequential cohorts of ten patients were evaluated in an open and uncontrolled study design. […] Tolerance was determined with concurrent anti-emetic therapy (prochlorperazine or metoclopramide hydrochloride) as necessary for each patient.
(§1) This study is an open label, uncontrolled trial. […] Tolerated doses could be studied in an additional five patient cohort of chronic hepatitis B patients, who were potentially more at risk of side effects. A month of post-treatment follow-up was provided for the hepatitis cohorts due to the known propensity of this disease to "flare" after therapy.
Although not formally randomized, qualified patients were to be consecutively enrolled without regard to their disease severity, expected tolerance, or potential benefit of the dose being evaluated. Tolerance to a dose was defined as seven or more of the ten patients in a cohort individually meeting predefined tolerance criteria including successful completion of therapy and limits on changes in particular signs, symptoms and laboratory tests. Tolerance was determined with concurrent anti-emetic therapy for those patients requiring it. Criteria and regimens for such therapy were predefined.
Weight loss was restricted to less than 10% in the past three months and serum CPK was required to be within the normal range.
(§2) Patients were evaluated clinically at the screening visit, and on Days 1, 3, 7, 10, and 14. The hepatitis patients were additionally evaluated on Days 21 and 42. The blood chemistry and urinalysis tests were repeated additionally on Days 2 and 5.
(§3) Clinical evaluations consisted of a physical exam, which included a test of lower extremity muscle strength, medical history, systems review, grading of non-laboratory signs and symptoms of toxicity, and listing of concomitant medications. Additionally, at visits with clinical evaluations after Day 1, any adverse experiences were recorded.
At the screening visit a chest x-ray, electrocardiogram (ECG), HIV test, T cell profile (CD4 and CD8 counts), serum biochemistry, hematology, urinalysis and stool guaiac tests were obtained in addition to the clinical evaluation. Hematology tests consisted of hemoglobin, hematocrit, RBC, WBC and differential, platelet, reticulocyte count, MCV, MCHC and MCH. Urinalysis tests consisted of color, appearance, pH, specific gravity, bilirubin, protein, glucose, myoglobin, RBCs, WBCs, casts, crystals and bacteria. Serum biochemistry tests consisted of creatinine, uric acid, BUN, total bilirubin, AST, ALT, alkaline phosphatase, LDH, CPK, CPK-MB, glucose, total protein, albumin, globulin, calcium, phosphorus, potassium, sodium, chloride, bicarbonate and aldolase.
The Baseline visit (Day 1) consisted of repeating the clinical evaluation, hematology, serum biochemistry, urinalysis, and stool guaiac tests, and T cell profile. Additionally at Baseline, archive plasma samples were taken. Plasma samples were taken two hours after each patient's first dose of FIAU (peak) and right before the second dose (trough). Thereafter, on Days 3, 7 and 14 additional peak and trough samples were obtained by taking the trough sample just before a patient took a dose of FIAU and the peak sample two hours later. These samples were analyzed by HPLC for levels of FIAU and FAU as low as 0.05 μg/ml for either compound.
(§4) The Day 3 safety profile consisted of the clinical evaluation, hematology, serum biochemistry, urinalysis, stool guaiac tests and plasma samples for peak and trough levels of FIAU and its major metabolite FAU. On Day 7 patients underwent clinical evaluation, an ECG, peak and trough serum samples, T cell profile, and hematology, serum biochemistry, urinalysis, and stool guaiac tests. A clinical evaluation, hematology, serum biochemistry, and urinalysis tests were done on Day 10.

[1] = typical; read-out: cellular toxicity concentration (ID50); cited from earlier work
HSV-1 = conditions: read-out: in vitro ED90; cited from earlier work
[2] = Safety of oral FIAU in HIV-infected patients with chronic hepatitis B
Method: Cohorts of five HIV-infected patients with chronic hepatitis B were studied at the tolerated doses. Plasma levels of FIAU and its major deiodinated metabolite FAU were determined two hours after dosing (peak levels) and just prior to dosing (trough levels) following the initial dose of FIAU and again on Days 3, 7, and 14 in order to make estimates of pharmacokinetic parameters including accumulation of drug or principal metabolite.
as §1
Additionally, all patients had to have completed the screening tests within four weeks of starting therapy, except for diagnostic HSV, VZV or CMV cultures. Those enrolled into the five patient cohorts of chronic hepatitis B patients had the same entry requirements, except that they had to have a history of chronic hepatitis B and be surface antigen positive. Liver function tests (AST, ALT, GGT, and bilirubin) could be Grade 2 or less at study entry for these patients. Patients receiving pentamidine aerosol for prophylaxis of recurrent Pneumocystis pneumonia could continue on this therapy during the study.
as §2, §3
as §4, with “10. These were repeated for the Day 14 evaluation with the addition of an ECG, T cell profile, stool guaiac, and peak and trough plasma samples. The post-treatment evaluations of the hepatitis patients on Days 21 and 42 consisted of a clinical evaluation and serum biochemistry tests.” for “10.”

[3] = 1.0 mg/kg-day, non-hepatitis patients, p>0.07
[4] = 1.0 mg/kg-day, ten non-hepatitis patients

O=c1[nH]c(=O)n([C@@H]2O[C@H](CO)[C@@H](O)[C@@H]2F)cc1I [FIAU, 1-(2'-deoxy-2'-fluoro-β-D-arabinofuranosyl)-5-iodouracil]
tolerance of oral FIAU (clinical; 1.0 mg/kg-day TID 14 days, HIV-infected patients (ten without chronic hepatitis B)): adequately tolerated | average AST value at end of therapy (clinical; 1.0 mg/kg-day, non-hepatitis patients, baseline 23.4, p≤0.02): 29.6 | average ALT value at end of therapy (clinical; 1.0 mg/kg-day, non-hepatitis patients, baseline 27.1, p≤0.02): 42.3 | average WBC count at end of therapy (clinical; 1.0 mg/kg-day, non-hepatitis patients, baseline average 5,480, p=0.0746): 4,920 cells/mm^3 | average loss of CD4 cells (clinical; 1.0 mg/kg-day, non-hepatitis patients, non-significant): 64 cells/mm^3 | decrease in lymphocytes (clinical; [3]): about 300 cells/mm^3 | decrease in neutrophils (clinical; [3]): about 300 cells/mm^3 | patients requiring anti-emetic therapy (clinical; [4]): four required anti-emetic therapy | patients with mild to moderate headache (clinical; [4]): Five patients complained of mild to moderate headache | patients with mild to moderate nausea (clinical; [4]): Eight patients experienced mild to moderate nausea | tolerance of oral FIAU (clinical; 1.7 mg/kg-day, three non-hepatitis patients): not tolerated; also recorded: All three discontinued the study after two to eight days due to severe fatigue | MTD at 336 h (clinical; human, in vivo, po, maximum tolerated dose of oral FIAU, HIV-infected population, TID for two weeks): ≥ 1 mg/kg/day | CC50 [1]: ~10 µM | EC90 (HSV-1): ~0.05 µM | tolerance compared with 1.0 or 0.5 mg/kg-day ([2]; 0.1 mg/kg-day): much better tolerated | incidents of fatigue ([2]; 0.1 mg/kg-day, four patients): only one incident of fatigue | tolerance of oral FIAU ([2]; 1.0 mg/kg-day TID 14 days, six hepatitis patients): completed the 14 days of therapy with no untoward effects; also recorded: relatively well-tolerated; also recorded: All six patients completed the full course of therapy | increase in AST and ALT values, Patient 406 ([2]; 1.0 mg/kg-day, 28 days after completion of therapy): ~5 fold | myositis ([2]; 1.0 mg/kg-day, Patient 101, after dosing was completed): severe myositis; also recorded: One patient experienced an episode of myositis | average drop in lymphocytes ([2]; 1.0 mg/kg-day, hepatitis patients): 750 cells/mm^3 | decrease in average CD4 count ([2]; 1.0 mg/kg-day, hepatitis patients, Baseline to Day 14, p=0.03): 40% | average CD4 count at Day 14 ([2]; 1.0 mg/kg-day, hepatitis patients, 691 at Baseline): 415 | average WBC at end of therapy ([2]; 1.0 mg/kg-day, hepatitis patients, baseline average 4,690, p=0.0085): 3,430 | average drop in neutrophils ([2]; 1.0 mg/kg-day, hepatitis patients, not significant): approximately 300 cell/mm^3 | decrease in lymphocytes ([2]; 1.0 mg/kg-day, hepatitis patients, p=0.00125): 39% | significance of increases in liver enzymes during therapy ([2]; 1.0 mg/kg-day, hepatitis patients, p>0.1): increases in liver enzymes were not | patients with mild to moderate nausea ([2]; 1.0 mg/kg-day, six hepatitis patients): Four patients reported mild to moderate nausea | change of AST and ALT values, Patient 401 ([2]; 1.0 mg/kg-day, very end of therapy, back below Baseline after a month of follow-up): doubling | toxicity overall ([2]; doses of 0.1 to 1.0 mg/kg-day, HIV-infected patients with chronic hepatitis B): have not produced unacceptable toxicity | incidence of fatigue ([2]; the other groups (1.0 and 0.5 mg/kg-day)): 40-50%
